PubChem BioAssay AID256 (DTP/NCI, 2004)
“And” between values parts separate entries of the source, which are not always exact repeats. Identical values can stand only once. Inconclusive results and toxic doses are left out.

System: CD2F1 mice, L1210 leukemia ip, survival T/C
Assay: NCI In Vivo Anticancer Drug Screen. Data for tumor model L1210 Leukemia (intraperitoneal) in CD2F1 (CDF1) mice
Settings: endpoint: mean survival time, higher = longer survival
Outline: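 Ratio T/C, where T is the treated-group value and C the vehicle-dosed control value, from mice implanted with a transplantable tumor.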

[1] = dose: 100.0 mg/kg/injection, schedule: Q04DX003 (ip), vehicle: saline
[2] = dose: 12.5 mg/kg/injection, schedule: Q01DX005 (ip), vehicle: distilled water + Tween-80
[3] = dose: 25.0 mg/kg/injection, schedule: Q01DX005 (ip), vehicle: distilled water + Tween-80
[4] = dose: 50.0 mg/kg/injection, schedule: Q01DX005 (ip), vehicle: distilled water + Tween-80
[5] = dose: 100.0 mg/kg/injection, schedule: Q01DX005 (ip), vehicle: distilled water + Tween-80
[6] = dose: 200.0 mg/kg/injection, schedule: Q01DX005 (ip), vehicle: distilled water + Tween-80
[7] = dose: 100.0 mg/kg/injection, schedule: Q01DX009 (ip), vehicle: saline with Tween-80
[8] = dose: 100.0 mg/kg/injection, schedule: Q04DX003 (ip), vehicle: saline with Tween-80
[9] = dose: 200.0 mg/kg/injection, schedule: Q01DX009 (ip), vehicle: saline with Tween-80
[10] = dose: 200.0 mg/kg/injection, schedule: Q04DX003 (ip), vehicle: saline with Tween-80
[11] = dose: 400.0 mg/kg/injection, schedule: Q01DX009 (ip), vehicle: saline with Tween-80
[12] = dose: 400.0 mg/kg/injection, schedule: Q04DX003 (ip), vehicle: saline with Tween-80

Q: Which T/C (dose: 8.0 mg/kg/injection, schedule: Q X X004 (other), vehicle: saline) does the source give for Nc1ccn(C2OC(CO)C(O)C2O)c(=O)n1 (centres undefined) here?
A: 86 % of control

Q: And the T/C (dose: 16.0 mg/kg/injection, schedule: Q01DX008 (ip), vehicle: saline)?
A: 95 % of control

Q: What about the T/C (dose: 16.0 mg/kg/injection, schedule: Q03HX024 (oral), vehicle: saline) of the same compound?
A: 100 % of control

Q: And the T/C (dose: 30.0 mg/kg/injection, schedule: Q03HX024 (ip), vehicle: saline)?
A: 93 % of control

Q: What about the T/C (dose: 32.0 mg/kg/injection, schedule: Q01DX008 (ip), vehicle: saline) of the same compound?
A: 93 % of control

Q: What about the T/C (dose: 32.0 mg/kg/injection, schedule: Q01DX008 (oral), vehicle: saline) of the same compound?
A: 100 % of control

Q: What about the T/C (dose: 64.0 mg/kg/injection, schedule: Q01DX008 (ip), vehicle: saline) of the same compound?
A: 98 % of control

Q: What about the T/C (dose: 64.0 mg/kg/injection, schedule: Q01DX008 (oral), vehicle: saline) of the same compound?
A: 98 % of control

Q: What about the T/C (dose: 100.0 mg/kg/injection, schedule: Q01DX009 (ip), vehicle: saline) of the same compound?
A: 100 % of control

Q: And the T/C [1]?
A: 96 % of control

Q: What about the T/C (dose: 128.0 mg/kg/injection, schedule: Q01DX001 (ip), vehicle: saline) of the same compound?
A: 120 % of control

Q: What about the T/C (dose: 128.0 mg/kg/injection, schedule: Q01DX008 (ip), vehicle: saline) of the same compound?
A: 95 % of control

Q: What about the T/C (dose: 128.0 mg/kg/injection, schedule: Q03HX024 (oral), vehicle: saline) of the same compound?
A: 110 % of control and 95 % of control

Q: And the T/C (dose: 128.0 mg/kg/injection, schedule: Q04DX003 (ip), vehicle: saline)?
A: 98 % of control

Q: What about the T/C (dose: 128.0 mg/kg/injection, schedule: Q04DX003 (oral), vehicle: saline) of the same compound?
A: 120 % of control and 100 % of control

Q: What about the T/C (dose: 200.0 mg/kg/injection, schedule: Q01DX009 (ip), vehicle: saline) of the same compound?
A: 93 % of control

Q: What about the T/C (dose: 256.0 mg/kg/injection, schedule: Q01DX001 (ip), vehicle: saline) of the same compound?
A: 91 % of control

Q: And the T/C (dose: 256.0 mg/kg/injection, schedule: Q01DX001 (oral), vehicle: saline)?
A: 98 % of control

Q: What about the T/C (dose: 256.0 mg/kg/injection, schedule: Q01DX009 (ip), vehicle: saline) of the same compound?
A: 91 % of control

Q: What about the T/C (dose: 256.0 mg/kg/injection, schedule: Q04DX003 (oral), vehicle: saline) of the same compound?
A: 98 % of control

Q: And the T/C (dose: 512.0 mg/kg/injection, schedule: Q01DX001 (ip), vehicle: saline)?
A: 120 % of control and 97 % of control

Q: What about the T/C (dose: 512.0 mg/kg/injection, schedule: Q01DX001 (oral), vehicle: saline) of the same compound?
A: 100 % of control

Q: What about the T/C (dose: 512.0 mg/kg/injection, schedule: Q04DX003 (ip), vehicle: saline) of the same compound?
A: 96 % of control

Q: And the T/C (dose: 600.0 mg/kg/injection, schedule: Q04DX002 (ip), vehicle: saline)?
A: 94 % of control

Q: And the T/C (dose: 1024.0 mg/kg/injection, schedule: Q01DX001 (ip), vehicle: saline)?
A: 90 % of control

Q: What about the T/C (dose: 1024.0 mg/kg/injection, schedule: Q01DX009 (ip), vehicle: saline) of the same compound?
A: 95 % of control

Q: And the T/C (dose: 1024.0 mg/kg/injection, schedule: Q01DX009 (oral), vehicle: saline)?
A: 98 % of control

Q: What about the T/C (dose: 1024.0 mg/kg/injection, schedule: Q04DX003 (oral), vehicle: saline) of the same compound?
A: 100 % of control

Q: And the T/C (dose: 1200.0 mg/kg/injection, schedule: Q04DX002 (ip), vehicle: saline)?
A: 91 % of control

Q: And the T/C (dose: 2400.0 mg/kg/injection, schedule: Q04DX003 (ip), vehicle: saline)?
A: 96 % of control

Q: How did the T/C [2] turn out when O=c1[nH]c(=O)n(C2CC(O)C(CO)O2)cc1-c1ccccc1 (centres undefined) was run?
A: 98 % of control

Q: What about the T/C [3] of the same compound?
A: 95 % of control

Q: What about the T/C [4] of the same compound?
A: 98 % of control

Q: What about the T/C [5] of the same compound?
A: 95 % of control

Q: And the T/C [6]?
A: 98 % of control

Q: What does the source list for CCC[CH2][Sn]([CH2]CCC)([O]C(=O)COc1ccc(C(=O)c2ccccc2)c(O)c1)[O]C(=O)COc1ccc(C(=O)c2ccccc2)c(O)c1?
A: T/C (dose: 1.56 mg/kg/injection, schedule: Q01DX001 (ip), vehicle: saline with Tween-80): 95 % of control; T/C (dose: 3.13 mg/kg/injection, schedule: Q01DX001 (ip), vehicle: saline with Tween-80): 98 % of control; T/C (dose: 6.25 mg/kg/injection, schedule: Q01DX001 (ip), vehicle: saline with Tween-80): 98 % of control; T/C (dose: 12.5 mg/kg/injection, schedule: Q01DX001 (ip), vehicle: saline with Tween-80): 105 % of control

Q: Which T/C [2] does the source give for CN(C)c1nc2c(c(=O)n(C)c(=O)n2C)n1C here?
A: 94 % of control

Q: What about the T/C [3] of the same compound?
A: 93 % of control

Q: And the T/C [4]?
A: 93 % of control

Q: And the T/C [5]?
A: 88 % of control

Q: For CCC1=[N+]([O-])[N+]([O-])=C(c2ccccc2)C1=O, which T/C (dose: 50.0 mg/kg/injection, schedule: Q01DX009 (ip), vehicle: other) is on record?
A: 93 % of control

Q: What about the T/C (dose: 100.0 mg/kg/injection, schedule: Q01DX009 (ip), vehicle: other) of the same compound?
A: 101 % of control

Q: And the T/C (dose: 200.0 mg/kg/injection, schedule: Q01DX009 (ip), vehicle: other)?
A: 93 % of control

Q: With C1CC[N-]CC1.Oc1ccccc1C=NCCN=Cc1ccccc1O.[Co] as the compound, how does the T/C (dose: 1.56 mg/kg/injection, schedule: Q04DX002 (ip), vehicle: saline with Tween-80) read?
A: 109 % of control

Q: What about the T/C (dose: 3.13 mg/kg/injection, schedule: Q04DX002 (ip), vehicle: saline with Tween-80) of the same compound?
A: 98 % of control

Q: Which results are given for CCOP(OCC)SSCn1nc2ccc3ccccc3n2c1=O?
A: T/C (dose: 12.5 mg/kg/injection, schedule: Q01DX009 (ip), vehicle: Klucel (hydroxypropylcellulose) (HPC)): 100 % of control; T/C (dose: 25.5 mg/kg/injection, schedule: Q01DX009 (ip), vehicle: Klucel (hydroxypropylcellulose) (HPC)): 95 % of control; T/C (dose: 50.0 mg/kg/injection, schedule: Q01DX009 (ip), vehicle: Klucel (hydroxypropylcellulose) (HPC)): 113 % of control

Q: What does the source list for c1ccc(CNCc2ccccc2)cc1?
A: T/C (dose: 100.0 mg/kg/injection, schedule: Q04DX003 (ip), vehicle: Klucel (hydroxypropylcellulose) (HPC)): 97 % of control; T/C (dose: 200.0 mg/kg/injection, schedule: Q04DX003 (ip), vehicle: Klucel (hydroxypropylcellulose) (HPC)): 100 % of control

Q: Which T/C (dose: 1.56 mg/kg/injection, schedule: Q01DX009 (ip), vehicle: saline with Tween-80) does the source give for C[CH2][Pb]([CH2]C)([CH2]C)[O]C(=O)c1cc(-c2ccccc2)nc2ccccc12 here?
A: 98 % of control

Q: What about the T/C (dose: 3.13 mg/kg/injection, schedule: Q01DX009 (ip), vehicle: saline with Tween-80) of the same compound?
A: 98 % of control

Q: What about the T/C (dose: 6.25 mg/kg/injection, schedule: Q01DX009 (ip), vehicle: saline with Tween-80) of the same compound?
A: 91 % of control and 104 % of control

Q: What does the source list for CNC(=O)ON=C(c1ccccc1)c1ccccc1?
A: T/C (dose: 100.0 mg/kg/injection, schedule: Q01DX001 (ip), vehicle: saline): 98 % of control; T/C (dose: 200.0 mg/kg/injection, schedule: Q01DX001 (ip), vehicle: saline): 104 % of control; T/C (dose: 400.0 mg/kg/injection, schedule: Q01DX001 (ip), vehicle: saline): 102 % of control

Q: How did the T/C [7] turn out when Cc1cc(N=Nc2ccccc2)cc(C)c1N was run?
A: 96 % of control

Q: What about the T/C [8] of the same compound?
A: 97 % of control

Q: What about the T/C [9] of the same compound?
A: 102 % of control

Q: And the T/C [10]?
A: 98 % of control

Q: And the T/C [11]?
A: 98 % of control

Q: And the T/C [12]?
A: 110 % of control

Q: For O=C(c1ccc(-c2ccccc2)cc1)C1(Br)CCCCC1, which T/C [7] is on record?
A: 102 % of control

Q: What about the T/C [8] of the same compound?
A: 101 % of control

Q: What about the T/C [9] of the same compound?
A: 96 % of control

Q: What about the T/C [10] of the same compound?
A: 102 % of control

Q: And the T/C [11]?
A: 97 % of control

Q: What about the T/C [12] of the same compound?
A: 98 % of control

Q: For CC(=O)N1CCc2cc(N)ccc21, which T/C [8] is on record?
A: 93 % of control

Q: What about the T/C [10] of the same compound?
A: 95 % of control

Q: And the T/C [12]?
A: 97 % of control

Q: How did the T/C (dose: 0.63 mg/kg/injection, schedule: Q01DX009 (ip), vehicle: saline) turn out when NC(N)=NCCNC(=O)C1CCC(N)C1 (centres undefined) was run?
A: 96 % of control

Q: And the T/C (dose: 1.25 mg/kg/injection, schedule: Q01DX009 (ip), vehicle: saline)?
A: 96 % of control

Q: With Nc1cc(C(=O)Nc2ccc(C3=NCCN3)cc2)cc(C(=O)Nc2ccc(C3=NCCN3)cc2)c1 as the compound, how does the T/C (dose: 31.3 mg/kg/injection, schedule: Q01DX010 (oral), vehicle: saline) read?
A: 115 % of control

Q: What about the T/C (dose: 250.0 mg/kg/injection, schedule: Q01DX010 (oral), vehicle: saline) of the same compound?
A: 159 % of control

Q: With Cc1cccc[n+]1CC(=O)c1ccccc1 as the compound, how does the T/C (dose: 25.0 mg/kg/injection, schedule: Q04DX003 (ip), vehicle: saline) read?
A: 104 % of control

Q: And the T/C (dose: 50.0 mg/kg/injection, schedule: Q04DX003 (ip), vehicle: saline)?
A: 96 % of control

Q: And the T/C [1]?
A: 96 % of control

Q: Which T/C (dose: 100.0 mg/kg/injection, schedule: Q01DX001 (ip), vehicle: saline with Tween-80) does the source give for COC(=O)CC1(C(=O)OC)Nc2ccc(Br)cc2C(=O)O1 (centres undefined) here?
A: 96 % of control

Q: And the T/C (dose: 200.0 mg/kg/injection, schedule: Q01DX001 (ip), vehicle: saline with Tween-80)?
A: 96 % of control

Q: And the T/C (dose: 400.0 mg/kg/injection, schedule: Q01DX001 (ip), vehicle: saline with Tween-80)?
A: 94 % of control

Q: What does the source list for O=C(OCC1OC(n2nc(SCc3ccccc3)c(=S)[nH]c2=O)C(OC(=O)c2ccccc2)C1OC(=O)c1ccccc1)c1ccccc1 (centres undefined)?
A: T/C [2]: 101 % of control; T/C [3]: 95 % of control; T/C [4]: 102 % of control; T/C [5]: 93 % of control; T/C [6]: 95 % of control
